Laboratory results reported in paper PMC5356633, “Arctigenin functions as a selective agonist of estrogen receptor β to restrict mTORC1 activation and consequent Th17 differentiation” (Oncotarget, 2016).

Target: T1, ERβ (estrogen receptor β) (Homo sapiens, UniProt Q92731)
T1 construct: gene ESR2; full-length ERβ
Assay: fluorescence polarization competition binding (PolarScreen ERβ Competitor Assay, Fluormone Tracer)

T1 sequence (Q92731 whole entry): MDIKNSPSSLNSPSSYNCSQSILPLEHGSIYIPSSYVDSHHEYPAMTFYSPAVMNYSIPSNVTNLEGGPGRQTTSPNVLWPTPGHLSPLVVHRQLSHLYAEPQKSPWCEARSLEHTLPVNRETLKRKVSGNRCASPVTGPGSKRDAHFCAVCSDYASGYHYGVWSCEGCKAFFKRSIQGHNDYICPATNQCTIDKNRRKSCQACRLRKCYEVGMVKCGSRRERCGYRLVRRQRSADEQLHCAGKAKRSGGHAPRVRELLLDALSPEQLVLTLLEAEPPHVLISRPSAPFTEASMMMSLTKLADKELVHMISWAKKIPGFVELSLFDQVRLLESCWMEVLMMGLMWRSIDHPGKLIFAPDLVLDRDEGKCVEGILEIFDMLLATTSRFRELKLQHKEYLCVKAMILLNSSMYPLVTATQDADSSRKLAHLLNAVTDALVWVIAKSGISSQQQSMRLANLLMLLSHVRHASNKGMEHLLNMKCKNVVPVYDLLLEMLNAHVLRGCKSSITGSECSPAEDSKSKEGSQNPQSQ

IC50: 3.29 µM
SMILES: COc1cc(C[C@H]2C(=O)OC[C@@H]2Cc2ccc(OC)c(OC)c2)ccc1O [ARCG, arctigenin]
